According to US20110092488A1, “Quninoline Methanol Compounds for the Treatment and Prevention of Parasitic Infections” (priority 2005, published 2011):
Converted amounts (≈) assume the structure as drawn. “Also recorded” adds a separate entry of the source.

Assays:
[1] = tested on: primary rat forebrain neurons; test: Neurocytotoxicity assay (MTT); details: for IC50: read-out: Neurotoxicity ranking (IC50 in μM), approximate IC50 from screen at 10, 100 and 1000 μM, MTT
Description: The neurocytotoxicity assay of AAQMs was conducted as per Dow et al.; The antimalarial potential of 4-quinolinecarbinolamines may be limited due to neurotoxicity and cross-resistance in mefloquine-resistant Plasmodium falciparum strains; Chemother. (48) 2624-2632 (2004) and is incorporated herein, by reference. This assay utilizes primary rat forebrain neurons and is a multi-endpoint screen. […] The AAQMs outlined in Table 1 were screened at 10, 100 and 1000 μM in triplicate, and the reduction in viability observed was determined using the 3-(4,5-dimethylthiazol-2-yl)-2,5-diphenyltetrazolium bromide (MTT) assay as per Dow et al., discussed above. Approximate IC50 values were calculated on the basis of the level of inhibition observed at each concentration. Full dose response assays were run for mefloquine and WR069878 with two fold dilutions (n=6 wells per dilution) and 11 dilutions for each drug. IC50s were calculated using Prism. Each time the assay is conducted, 20 μM mefloquine is included, as a control. […] Assays are re-run if the loss of viability induced by mefloquine is <40% or >60%. Neuroprotection experiments with 6,7-dinitroquinoxaline-2,3-dione (DNQX) and magnesium were performed as per Dow et al.; Transcriptional profiling of mefloquine-induced disruption of calcium homeostasis in neurons in vitro; Genomics (86)539-550 (2005), which is incorporated by reference, herein. Neurons were exposed to DNQX (100 μM) or magnesium (12 mM) for 5 min, followed by mefloquine (25 μM) or WR069878 (250 μM) for 20 min after which reduction in cell viability was determined. […] DNQX is an inhibitor of non-N-methyl-D-aspartate (NMDA) receptors, whilst magnesium inhibits the functioning of the inositol 1,4,5-trisphosphate (IP3)-mediated calcium signaling pathway at several points. The effects of mefloquine and WR069878 on neuronal calcium homeostasis were assessed utilizing confocal microscopy as per Dow et al, as discussed in Antimicrob Agents Chemother. (48)2624-2632 (2004), cited above, and incorporated by reference, herein. Briefly neurons were loaded with calcium sensitive dye Fluo 3-A for 1 h and were washed prior to image experiments. Neurons were ‘spiked’ with 100 μM mefloquine or WR069878. Subsequent changes in neuronal calcium homeostasis were recorded as fluctuations in the emitted fluorescence of fluo-3-complexed calcium at 530 nm (excitation was 488 nm). Sequential image scans of fields containing 5-25 neurons were used to construct temporal profiles. Scans were made at 10 s intervals. Fluorescence levels for each neuron were normalized 12 to time zero values. Data were then pooled from three and five independent experiments for mefloquine and WR069878 respectively.

[2] = Description: The AAQMs indicated in Table 1 (10 μM) were added to a mixture containing an NADPH-regenerating buffer (1.25 mM β-NADP+, 3.3 mM glucose-6-phosphate, and 3.3 mM MgCl2) and 0.5 mg/ml pooled human liver microsomes to a final volume of 125 μl. The mixtures were incubated for 5 minutes at 37° C. and the reactions were initiated by adding 25 μl glucose-6-phosphate dehydrogenase to a final concentration of 1 unit/ml. The reactions were maintained at 37° C. until they were terminated by the addition of an equal volume of 100% ice cold acetonitrile at 0, 10, 30, 60, and 120 minutes. Samples were centrifuged to pellet the proteins and the supernatant was analyzed by LC-MS/MS in duplicate using fast LC gradient or isocratic methods. AAQM concentrations were quantified with external calibration, using plots of response v. amount. Chromatograms were analyzed using the mass spectrometry software Xcalibur® QuanBrowser (for ThermoFinnigan® instruments) or MassLynx® (for Waters® instruments). Concentrations of AAQMs remaining at each time point were calculated using the unknown peak areas and corresponding calibration curves. In order to calculate the half-life, a first-order rate of decay was assumed. […] All reagents were purchased from Sigma except for the microsomes, which were obtained from BD Gentest®. For metabolite identification, samples were prepared as described above with human liver microsomes. Additional samples were prepared with for each AAQM using mouse, rat, and rhesus monkey liver microsomes. Samples were separated using an LC gradient method and analyzed by full scan LC-MS and LC-MS/MS. […] These MS/MS data were also used to do preliminary structural elucidation. […] The relative percentage of formation of each metabolite was determined in a semi-quantitative manner since standards of each metabolite were not available. Peak areas of each detected AAQM metabolite and the internal standard were determined, and their ratios were calculated as metabolite area/internal standard area. The percent formation of each metabolite was determined as the area ratio divided by the sum of all the metabolite area ratios.
P. falciparum TM91C235 = test: In vitro antimalarial activity against P. falciparum TM91C235; format: cell-based, Plasmodium falciparum; details: for TM91C235 IC90: Table 2
Description: (§1) The in vitro activities of AAQMs against P. falciparum strains W2, D6, TM91C235 and TM90C2A were evaluated using the method of Desjardins et al. as modified by Milhous et al. W2 is chloroquine resistant and mefloquine sensitive, D6 is chloroquine sensitive but naturally less susceptible to mefloquine, TM91C235 is resistant to mefloquine, chloroquine and pyrimethamine as is TM90C2A, however this latter parasite is a two pfmdr1 copy strain. We routinely run mefloquine in this screen as a control to ensure assay validity.

[3] = tested on: FVO strain of P. falciparum; test: Efficacy in P. falciparum-challenged Aotus monkeys; format: in vivo, Plasmodium falciparum in Aotus lemurinus lemurinus; details: 10 mg/kg/day x7 oral; groups of two; Cure = parasite free 90 days; R = average day of recrudescence; Failure = rescued with mefloquine
Description: (§2) The P. berghei-mouse efficacy data were obtained from the WRAIR chemical information system (subcutaneous testing) or from recent tests conducted at AFRIMS, Thailand or at the University of Miami using a modified version of the Thompson test. Groups of five mice were inoculated through i.p. injection on day 0 (usually with 1×106 P. berghei-parasitized erythrocytes). The drugs in Table 1 were administered either subcutaneously or orally for three days (usually on days 3-5) at doses of 1.25-160 mg/kg in two to four fold increments. Cure was defined as survival until day 60 (subcutaneous dosing) or day 31 post-treatment (oral dosing). […] The minimum effective dose was the lowest dose level that cured at least one of five mice. The Aotus studies were performed according to Obaldia; Detection of Klebsiella pnuumoniae antibodies in Aotus l. lemurinus (Panamanian owl monkey) using an enzyme linked immunosorbent assay (ELIA) test; Lab Anim (25)133-141 (1991) and Obaldia et al., WR 238605, chloroquine, and their combinations as blood schizonticides against a chloroquine-resistant strain of Plasmodium vivax in Aotus monkeys; Am. J. Trop. Med. Hyg. (56)508-510 (1997), which are incorporated by reference, herein. Groups of two Aotus lemurinus 6 lemurinus of the karyotype VIII or IX (27) male and female monkeys with weights ranging from 742-970 g were inoculated with 5×10^6 parasites of either the FVO strain of P. falciparum or the AMRU1 strain of P. vivax. Both of these strains are chloroquine resistant. […] Monkeys were examined and thick Giemsa-stained blood smears were prepared and enumerated daily (17) to monitor the course of infection. […] In some instances, a high dose of the test drug was used to retreat monkeys instead of the mefloquine rescue. Monkeys are considered cured if they are parasite free 90 days post treatment. […] Plasma samples were taken from the monkeys in some studies for quantification of metabolites. Additional blood samples were taken as appropriate for complete blood counts and serum chemistry. Research was conducted in compliance with the Animal Welfare Act and other federal statutes and regulations relating to animals and experiments involving animals and adheres to principles stated in the Guide for the Care and Use of Laboratory Animals, NRC Publication, 1996 edition (34).

[4] = Aotus, 10 mg/kg/day oral x7; for Plasma conc on day 1 (ng/ml) 2 h: day 1, 2 h; for Plasma conc on day 1 (ng/ml) 24 h: day 1, 24 h; for Plasma conc. on day 7 (ng/ml) 2 h: day 7, 2 h; for Plasma conc. on day 7 (ng/ml) 24 h: day 7, 24 h
Description: as §2

P. falciparum D6 [5] = test: Isobologram analysis azithromycin and WR074086, P. falciparum D6; format: cell-based, Plasmodium falciparum; details: Line C FIG. 5: starting azithromycin 12500 ng/ml, WR074086 5 ng/ml
Description: (§3) The combined effects of azithromycin (as represented by compound 196 on the horizontal axes of FIG. 4 through 6) and WR074086 (as represented by compound 14885 on vertical axes of FIGS. 4 through 6) against three strains of P. falciparum were investigated using isobologram analysis. First, the IC50s of each compound were determined as described above.
Next, IC50s were determined with different fractional starting concentrations of each compound. For example in line C of FIG. 5, the starting concentration of azithromycin was 12500 ng/ml whereas the starting concentration of WR074086 was 5 ng/ml. Each of these starting concentrations is half of that used when each compound was tested alone. […] In the data tables, lines D-H represent other combinations of starting concentrations of each compound.
For each pair of starting concentrations for each drug, fractional inhibitory concentrations were determined using the following formula: FIC=IC50 in combination/IC50 alone.
The FICs for the eight tests are plotted as indicated in FIG. 4 through FIG. 6 for each of three P. falciparum strains. Graphs of this type are called isobolograms and additivity is represented by an overall FIC SUM of 1, as represented by the straight line joining the two axes. A potentiative effect is represented by a concave curve below the straight line, since IC50s in combination are lower than expected. Antagonism is represented by a convex curve above the straight line, since IC50s in combination are higher than expected.

P. falciparum D6 [6] = test: In vitro antimalarial activity against P. falciparum D6; format: cell-based, Plasmodium falciparum; details: Plasmodium falciparum, D6; FIG. 5; read-out: IC50 against P. falciparum D6, compound alone
Description: as §1, §3

[7] = tested on: Plasmodium falciparum malaria; details: P. falciparum malaria, South East Asia; WR030090: field trials; cited from earlier work

## O=C(O)c1cc(C(F)(F)F)nc2c(C(F)(F)F)cccc12 [Mefloquine metabolite, reference compound]
[1]; at 1000 microM, FIG. 1
  Killing of neurons: only partial killing

## CCCCNCC(O)c1cc(-c2ccc(Cl)cc2)nc2c(Cl)cc(Cl)cc12 (stereo not shown) [WR007524]
[2]
  Route of metabolic transformation: not at all
[1]
  IC50: 60 µM
P. falciparum TM91C235
  Activity against P. falciparum TM91C235 (IC50 in ng/ml): 0.63 ng/mL

## CCCCN(CCCC)CC(O)c1cc(-c2ccc(Cl)cc2)nc2c(Cl)cc(Cl)cc12 (stereo not shown) [WR029252]
[1]
  IC50: 600 µM
P. falciparum TM91C235
  Activity against P. falciparum TM91C235 (IC50 in ng/ml): 7.6 ng/mL
  TM91C235 IC90: 20 ng/mL
[3]
  Outcome in Aotus: Failure
[4]
  Mean peak concentration: 44 ng/mL
  Plasma conc on day 1 (ng/ml) 2 h: 67 ng/mL
  Plasma conc on day 1 (ng/ml) 24 h: 1.0 ng/mL
  Plasma conc. on day 7 (ng/ml) 2 h: 21 ng/mL
  Plasma conc. on day 7 (ng/ml) 24 h: 1.0 ng/mL

## CCCCN(CCCC)CC(O)c1cc(-c2ccc(Cl)cc2)nc2ccc(Cl)cc12 (stereo not shown) [WR035058]
[1]
  IC50: 600 µM
P. falciparum TM91C235
  Activity against P. falciparum TM91C235 (IC50 in ng/ml): 2.7 ng/mL
  TM91C235 IC90: 8.5 ng/mL
[3]
  Outcome in Aotus: Cures and Cure
[4]
  Mean peak concentration: 413 ng/mL
  Plasma conc on day 1 (ng/ml) 2 h: 454 ng/mL
  Plasma conc on day 1 (ng/ml) 24 h: 84 ng/mL
  Plasma conc. on day 7 (ng/ml) 2 h: 371 ng/mL
  Plasma conc. on day 7 (ng/ml) 24 h: 105 ng/mL

## CCN(CC)CC(O)c1cc(-c2ccc(Cl)cc2)nc2c(Cl)cc(Cl)cc12 (stereo not shown) [WR041294]
[2]
  Route of metabolic transformation: N-dealkylation
[1]
  IC50: 60 µM
P. falciparum TM91C235
  Activity against P. falciparum TM91C235 (IC50 in ng/ml): 1.1 ng/mL

## CCCCN(CCCC)CC(O)c1cc(-c2ccc(Cl)cc2)nc2cc(F)ccc12 (stereo not shown) [WR081049]
[1]
  IC50: 200 µM
P. falciparum TM91C235
  Activity against P. falciparum TM91C235 (IC50 in ng/ml): 1.6 ng/mL

## CCCC[N+]([O-])(CCCC)CC(O)c1cc(-c2ccc(Cl)cc2)nc2c(Cl)cc(Cl)cc12 (stereo not shown) [WR098656]
[1]
  IC50: 60 µM
P. falciparum TM91C235
  Activity against P. falciparum TM91C235 (IC50 in ng/ml): 3.3 ng/mL

## CCCCN(CCCC)CC(O)c1cc(-c2ccc(I)cc2)nc2c(Cl)cc(Cl)cc12 (stereo not shown) [WR106752]
P. falciparum TM91C235
  Activity against P. falciparum TM91C235 (IC50 in ng/ml): 8.0 ng/mL

## CCCCNCC(O)c1cc(-c2ccc(Cl)cc2)nc2c(C)cc(C)cc12 (stereo not shown) [WR176399]
[2]
  Route of metabolic transformation: hydroxylation
[1]
  IC50: 600 µM
P. falciparum TM91C235
  Activity against P. falciparum TM91C235 (IC50 in ng/ml): 0.48 ng/mL
  TM91C235 IC90: <0.5 ng/mL
[3]
  Outcome in Aotus: cleared parasitemias, but recrudescence was subsequently observed; also recorded: Clear (R21)
[4]
  Mean peak concentration: 28 ng/mL
  Plasma conc on day 1 (ng/ml) 2 h: 27 ng/mL
  Plasma conc on day 1 (ng/ml) 24 h: 2.7 ng/mL
  Plasma conc. on day 7 (ng/ml) 2 h: 30 ng/mL
  Plasma conc. on day 7 (ng/ml) 24 h: 3.8 ng/mL

## CCCCCCN(CCCCCC)CC(O)c1cc(-c2ccccc2)nc2c(Cl)cccc12 (stereo not shown) [WR211679]
P. falciparum TM91C235
  Activity against P. falciparum TM91C235 (IC50 in ng/ml): 7.7 ng/mL

## CCCCN(CCCC)CC(O)c1cc(-c2ccc(Cl)cc2)nc2c(C)cccc12 (stereo not shown) [WR211925]
[1]
  IC50: 600 µM
P. falciparum TM91C235
  Activity against P. falciparum TM91C235 (IC50 in ng/ml): 5.2 ng/mL

## CC[C@H]1OC(=O)[C@H](C)[C@@H](O[C@H]2C[C@@](C)(OC)[C@@H](O)[C@H](C)O2)[C@H](C)[C@@H](O[C@@H]2O[C@H](C)C[C@H](N(C)C)[C@H]2O)[C@](C)(O)C[C@@H](C)CN(C)[C@H](C)[C@@H](O)[C@]1(C)O [azithromycin, reference compound]
P. falciparum D6 [5]
  FIC (IC50 in combination/IC50 alone): 0.249
P. falciparum D6 [6]
  IC50: 7230 ng/mL (≈ 9.66 µM)

## CCN(CC)CCCC(C)Nc1ccnc2cc(Cl)ccc12 (stereo not shown) [chloroquine]
[7]
  Cure rate: 11-20%
